Source: US11814445B2, “Cyclic polypeptides for PCSK9 inhibition” (Ra Pharmaceuticals, Inc., priority 2018, dated 2023)
Numbered stars: 1 amine (or outer) side, 2 acyl side, 3 side chain; on linkers, the order of the positions; unused ones are H or OH. Bridge positions count the residues as written; N and C are the ends. Square brackets hold non-standard residues; d marks the D form. Peptide text beside a SMILES is read from it. ξ: configuration not given here. X2 = NC(=O)[C@H](CSCc1cccc(C[*:1])c1)CC(=O)[C@@H]1CCCN1[*:2]; X6 = O=C([C@H](Cc1cccc(OCC=[*:3])c1)N[*:1])[*:2]; Phe(4-COOH) = N[C@@H](Cc1ccc(C(=O)O)cc1)C(=O)O; Trp(5-F) = N[C@@H](Cc1c[nH]c2ccc(F)cc12)C(=O)O; Bip = N[C@@H](Cc1ccc(-c2ccccc2)cc1)C(=O)O; X1 = O=C(CCSCc1cccc(CSCCN[*:1])c1)[*:2]; 2Nal = N[C@@H](Cc1ccc2ccccc2c1)C(=O)O; mXylylene = c1cc(C[*:1])cc(C[*:2])c1; NBzl(4-I)Gly = O=C(O)CNCc1ccc(I)cc1; X5 = O=C(CN(CCCCC=[*:3])[*:1])[*:2]; X4 = O=C(CN(CCCC=[*:3])[*:1])[*:2]; hhPhe = N[C@@H](CCCc1ccccc1)C(=O)O; X7 = O=C(CN(CC=[*:3])[*:1])[*:2]; aThr = C[C@H](O)[C@H](N)C(=O)O; Tle = CC(C)(C)[C@H](N)C(=O)O; αMeP = C[C@@]1(C(=O)O)CCCN1; Pip = O=C(O)[C@@H]1CCCCN1; hSer = N[C@@H](CCO)C(=O)O; Aze = O=C(O)[C@@H]1CCN1; Ahx = NCCCCCC(=O)O; ξP = O=C(O)C1CCCN1; Mpa = O=C(O)CCS

Experiments:
[1] = molecular target: human PCSK9 / human LDLR EGFa domain (Homo sapiens, UniProt Q8NBP7); assay: TR-FRET assay of inhibition of the PCSK9-LDLR protein-protein interaction; format: binding; details: 20 nM human PCSK9, 20 nM human LDLR EGFa domain, 2 hours room temperature
Protocol: A time-resolved fluorescence resonance energy (TR-FRET) assay was used to measure inhibition of the PCSK9-LDLR protein-protein interaction. Briefly, 20 nM avitag-biotinylated human PCSK9 was incubated with 20 nM his-tagged human LDLR EGFa domain in the presence of 5 nM LANCE Ulight Streptavidin (Perkin Elmer) and 5 nM europium-Anti-6×His (Perkin Elmer) for 2 hours covered at room temperature in buffer containing 50 mM HEPES, 150 mM NaCl, 5 mM CaCl2), 0.01% BSA and 0.01% Surfactant P20. Compounds were tested in dose-response and concentrations giving half-maximal inhibition calculated using a 4-parameter fit equation.

PCSK9 = molecular target: T1, PCSK9 (Homo sapiens, UniProt Q8NBP7); assay: PCSK9 Alexa FRET Standard assay (displacement of AlexaFluor647 tagged cyclic peptide Reagent A); format: binding; details: 0.5 nM PCSK9, 20 nM AF cyclic peptide Reagent A
T1 construct: biotin (biotinylated)
Protocol: A solution containing 1 nM biotinylated PCSK9+2.5 nM Lance Streptavidin Europium (Strep-Eu) was made in 50 mM HEPES pH 7.4, 0.15 M NaCl, 5 mM CaCl2), 0.01% BSA, and 0.01% Surfactant P20. A separate solution containing 40 nM of the AlexaFluor tagged cyclic peptide was made in the same buffer system. An Echo was used to transfer 0.750 ul of compound to an assay plate followed by the addition of 15 ul of PCSK9+Stept-Eu and 15 ul of AF peptide. The final assay volume was 30.750 ul containing 0.5 nM PCSK9, 1.25 nM Strep-Eu, and 20 nM AF cyclic peptide. The reaction was incubated at room temperature for at least two hours prior to fluorescence measurements using an Envision Multilabel Reader. IC50 values were determined by fitting data to a sigmoidal dose-response curve using nonlinear regression. Ki was then calculated from the IC50 and the KD of AF cyclic peptide. Counts (B-counts) of the europium-labeled PCSK9 were followed to observe if compounds were […]. A fall off of the B-counts likely indicated a false positive of inhibition. Data from this procedure was reported as “A=‘numerical value’ (nanomolar)”

Sequence of human PCSK9 / human LDLR EGFa domain (Q8NBP7 153-692): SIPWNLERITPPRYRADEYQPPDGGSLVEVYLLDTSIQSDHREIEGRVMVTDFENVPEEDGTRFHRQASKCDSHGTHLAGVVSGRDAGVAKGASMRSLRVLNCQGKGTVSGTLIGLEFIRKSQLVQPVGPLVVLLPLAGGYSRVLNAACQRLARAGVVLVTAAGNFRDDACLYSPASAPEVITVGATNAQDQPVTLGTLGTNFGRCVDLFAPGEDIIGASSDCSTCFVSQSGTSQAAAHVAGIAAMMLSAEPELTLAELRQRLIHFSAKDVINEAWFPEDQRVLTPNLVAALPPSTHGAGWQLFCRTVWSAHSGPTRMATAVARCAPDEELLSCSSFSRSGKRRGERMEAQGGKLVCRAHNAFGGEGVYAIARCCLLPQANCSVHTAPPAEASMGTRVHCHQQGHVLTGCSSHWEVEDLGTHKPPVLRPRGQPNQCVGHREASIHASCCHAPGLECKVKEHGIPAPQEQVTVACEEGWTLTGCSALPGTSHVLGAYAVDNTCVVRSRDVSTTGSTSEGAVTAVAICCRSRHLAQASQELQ
T1 sequence (Q8NBP7 153-692): as above

Row | Structure (SMILES) | IC50 [1] [nM] | IC50 (PCSK9) [nM]
1 | C[C@@H]1NC(=O)[C@@H]2CCCN2C(=O)[C@H](Cc2ccc3ccccc3c2)NC(=O)[C@H](Cc2c[nH]c3ccc(F)cc23)NC(=O)CNC(=O)[C@H](CCCCN)NC(=O)CCSCc2cccc(c2)CSC[C@@H](C(N)=O)NC(=O)[C@@H]2CCCN2C(=O)[C@H](Cc2ccc(O)cc2)NC1=O [Compound 011] ([Mpa]KG[Trp(5-F)][2Nal]PAYPC-NH2; linker 1-10 via mXylylene) | 1 to 100 | 1 to 100
2 | NCCCC[C@@H]1NC(=O)CCSCc2cccc(c2)CSCCNC(=O)C2CCCN2C(=O)[C@H](Cc2ccc(O)cc2)NC(=O)CNC(=O)[C@H]2CCCN2C(=O)[C@H](Cc2c[nH]c3ccc(F)cc23)NC(=O)[C@H](Cc2c[nH]c3ccc(F)cc23)NC(=O)CNC1=O (stereo partly drawn) [Compound 041] (cyclo(G[Trp(5-F)][Trp(5-F)][dP]GY[ξP][X1]K)) | 1 to 100 | 1 to 100
3 | C[C@@H]1NC(=O)[C@@H]2CCCN2C(=O)[C@H](CCCc2ccccc2)NC(=O)[C@H](Cc2c[nH]c3ccc(F)cc23)NC(=O)CNC(=O)[C@H](CCCCN)NC(=O)CCSCc2cccc(c2)CSC[C@@H](C(N)=O)NC(=O)[C@@H]2CCCN2C(=O)[C@H](Cc2ccc(O)cc2)NC1=O [Compound 013] ([Mpa]KG[Trp(5-F)][hhPhe]PAYPC-NH2; linker 1-10 via mXylylene) | 1 to 100 | 1 to 100
4 | C[C@@H]1NC(=O)[C@@H]2CCCN2C(=O)[C@H](Cc2ccc(-c3ccccc3)cc2)NC(=O)[C@H](Cc2c[nH]c3ccc(F)cc23)NC(=O)CNC(=O)[C@H](CCCCN)NC(=O)CCSCc2cccc(c2)CSC[C@@H](C(N)=O)NC(=O)[C@@H]2CCCN2C(=O)[C@H](Cc2ccc(O)cc2)NC1=O [Compound 017] ([Mpa]KG[Trp(5-F)][Bip]PAYPC-NH2; linker 1-10 via mXylylene) | 100 to 1000 | 1000 to 12100
5 | C[C@@H]1NC(=O)[C@@H]2CCN2C(=O)[C@H](Cc2c[nH]c3ccc(F)cc23)NC(=O)[C@H](Cc2c[nH]c3ccc(F)cc23)NC(=O)[C@@H](C)NC(=O)[C@H](CCCCN)NC(=O)CCSCc2cccc(c2)CSC[C@@H](C(N)=O)CC(=O)[C@@H]2CCCN2C(=O)[C@H](Cc2ccc(O)cc2)NC1=O [Compound 034] ([Mpa]K[dA][Trp(5-F)][Trp(5-F)][Aze]AY; linker 1-C via X2) | 100 to 1000 | 1 to 100
6 | C[C@@H]1NC(=O)[C@@H]2CCCN2C(=O)[C@H](Cc2c[nH]c3ccc(F)cc23)NC(=O)[C@H](Cc2c[nH]c3ccc(F)cc23)NC(=O)[C@@H](C)NC(=O)[C@@H]2CCCN2C(=O)CCSCc2cccc(c2)CSCCNC(=O)[C@@H]2CCCN2C(=O)[C@H](Cc2ccc(O)cc2)NC1=O [Compound 050] (cyclo(AYP[X1]P[dA][Trp(5-F)][Trp(5-F)]P)) | 1 to 100 | 1000 to 12100
7 | C[C@@H]1NC(=O)[C@@H]2CCCN2C(=O)CN(Cc2ccc(I)cc2)C(=O)[C@H](Cc2c[nH]c3ccc(F)cc23)NC(=O)CNC(=O)[C@H](CCCCN)NC(=O)CCSCc2cccc(c2)CSC[C@@H](C(N)=O)NC(=O)[C@@H]2CCCN2C(=O)[C@H](Cc2ccc(O)cc2)NC1=O [Compound 010] ([Mpa]KG[Trp(5-F)][NBzl(4-I)Gly]PAYPC-NH2; linker 1-10 via mXylylene) | 100 to 1000 | –
8 | C[C@@H]1NC(=O)[C@@H]2CCCCN2C(=O)[C@H](Cc2c[nH]c3ccc(F)cc23)NC(=O)[C@H](Cc2c[nH]c3ccc(F)cc23)NC(=O)[C@@H](C)NC(=O)[C@H](CCCCN)NC(=O)CCSCc2cccc(c2)CSC[C@@H](C(N)=O)NC(=O)[C@@H]2CCCN2C(=O)[C@H](Cc2ccc(O)cc2)NC1=O [Compound 035] ([Mpa]K[dA][Trp(5-F)][Trp(5-F)][Pip]AYPC-NH2; linker 1-10 via mXylylene) | 100 to 1000 | –
9 | C[C@H]1NC(=O)[C@H]2CCCN2C(=O)[C@H](Cc2c[nH]c3ccc(F)cc23)NC(=O)[C@H](Cc2c[nH]c3ccc(F)cc23)NC(=O)CNC(=O)[C@H](CCCCN)NC(=O)CCSCc2cccc(c2)CSCCNC(=O)C2CCCN2C(=O)[C@H](Cc2ccc(O)cc2)NC1=O (stereo partly drawn) [Compound 040] (cyclo(G[Trp(5-F)][Trp(5-F)][dP][dA]Y[ξP][X1]K)) | 1 to 100 | –
10 | C[C@@H]1NC(=O)[C@@H]2CCCN2C(=O)[C@H](Cc2c[nH]c3ccc(F)cc23)NC(=O)[C@H](Cc2c[nH]c3ccc(F)cc23)NC(=O)[C@@H](C)NC(=O)[C@H](CCCCN)NC(=O)CCSCc2cccc(c2)CSCCNC(=O)[C@]2(C)CCCN2C(=O)[C@H](Cc2ccc(O)cc2)NC1=O [Compound 003] (cyclo(AY[αMeP][X1]K[dA][Trp(5-F)][Trp(5-F)]P)) | 1000 to 12100 | –

Further lines, results first:

Row | IC50 [1] [nM] | IC50 (PCSK9) [nM] | Structure (SMILES)
11 | 1000 to 12100 | 100 to 1000 | COc1ccc(C[C@@H]2NC(=O)[C@H](C)NC(=O)CN3CCCC/C=C\CCCN(CC(=O)N[C@@H](Cc4c[nH]c5ccc(F)cc45)C3=O)C(=O)CNC(=O)CCCCCNC(=O)c3ccc(cc3)C[C@@H](C(N)=O)NC(=O)[C@]3(C)CCCN3C2=O)cc1 [Compound 122] ([Ahx]G[X4][Trp(5-F)][X5]AY(Me)[αMeP][Phe(4-COOH)]-NH2; staple (Z) 3-5; lactam N-9)
12 | 1 to 100 | 1 to 100 | COc1ccc(C[C@@H]2NC(=O)[C@H](C)NC(=O)[C@@H]3CCCN3C(=O)[C@H](NC(=O)[C@H](Cc3c[nH]c4ccc(F)cc34)NC(=O)[C@@H](C)NC(C)=O)Cc3cn(c4ccc(F)cc34)Cc3cn(nn3)-c3cccc(c3)CSCCNC(=O)[C@]3(C)CCCN3C2=O)cc1 [Compound 102]
13 | 100 to 1000 | 1 to 100 | COc1ccc(C[C@@H]2NC(=O)[C@H](C)NC(=O)CN3CCCCCCCCCN(CC(=O)N[C@@H](Cc4c[nH]c5ccc(F)cc45)C3=O)C(=O)CNC(=O)CCCCCNC(=O)c3ccc(cc3)C[C@@H](C(N)=O)NC(=O)[C@]3(C)CCCN3C2=O)cc1 [Compound 123]
14 | 100 to 1000 | 100 to 1000 | C[C@H](O)[C@@H]1NC(=O)CNC(=O)[C@H](CCCCN)NC(=O)CCSCc2cccc(c2)CSC[C@@H](C(N)=O)NC(=O)[C@]2(C)CCCN2C(=O)[C@H](Cc2ccc(O)cc2)NC(=O)[C@H](Cc2cnc[nH]2)NC(=O)[C@H](CC(=O)O)NC(=O)[C@H](Cc2c[nH]c3ccc(F)cc23)NC1=O [Compound 114] ([Mpa]KG[aThr][Trp(5-F)]DHY[αMeP]C-NH2; linker 1-10 via mXylylene)
15 | 100 to 1000 | 1 to 100 | COc1ccc(C[C@@H]2NC(=O)[C@H](C)NC(=O)[C@@H]3CCC(=O)NCc4cccc(c4)C[C@H](NC(=O)CNC(C)=O)C(=O)N[C@@H](Cc4cn(c5ccc(F)cc45)Cc4cn(nn4)CC[C@@H](C(N)=O)NC(=O)[C@]4(C)CCCN4C2=O)C(=O)N3)cc1 [Compound 127]
16 | 100 to 1000 | 1 to 100 | COc1ccc(C[C@@H]2NC(=O)[C@H](C)NC(=O)CN3CCCCOc4cccc(c4)C[C@H](NC(=O)CNC(=O)CCCCCNC(=O)c4ccc(cc4)C[C@@H](C(N)=O)NC(=O)[C@]4(C)CCCN4C2=O)C(=O)N[C@@H](Cc2c[nH]c4ccc(F)cc24)C3=O)cc1 [Compound 124]
17 | 100 to 1000 | 100 to 1000 | COc1ccc(C[C@@H]2NC(=O)[C@H]([C@@H](C)O)NC(=O)CN3CCCCCOc4cccc(c4)C[C@@H](NC(=O)[C@@H](C)NC(=O)[C@H](C)NC(=O)CCSCc4cccc(c4)CSCCNC(=O)[C@]4(C)CCCN4C2=O)C(=O)N[C@@H](Cc2c[nH]c4ccc(F)cc24)C3=O)cc1 [Compound 125]
18 | 100 to 1000 | 1 to 100 | NCCCC[C@@H]1NC(=O)CCSCc2cccc(c2)CSC[C@@H](C(N)=O)NC(=O)[C@@H]2CCCN2C(=O)[C@H](Cc2ccc(O)cc2)NC(=O)[C@H](Cc2cnc[nH]2)NC(=O)[C@H](CCO)NC(=O)[C@H](Cc2c[nH]c3ccc(F)cc23)NC(=O)[C@H](Cc2c[nH]c3ccc(F)cc23)NC(=O)CNC1=O [Compound 117] ([Mpa]KG[Trp(5-F)][Trp(5-F)][hSer]HYPC-NH2; linker 1-10 via mXylylene)
19 | 100 to 1000 | 1 to 100 | COc1ccc(C[C@@H]2NC(=O)[C@H](C)NC(=O)CN3C/C=C\COc4cccc(c4)C[C@H](NC(=O)CNC(=O)CCCCCNC(=O)c4ccc(cc4)C[C@@H](C(N)=O)NC(=O)[C@]4(C)CCCN4C2=O)C(=O)N[C@@H](Cc2c[nH]c4ccc(F)cc24)C3=O)cc1 [Compound 121] ([Ahx]G[X6][Trp(5-F)][X7]AY(Me)[αMeP][Phe(4-COOH)]-NH2; staple (Z) 3-5; lactam N-9)
20 | 100 to 1000 | – | C[C@@H]1NC(=O)[C@@H]2CCCN2C(=O)[C@H](Cc2c[nH]c3ccc(F)cc23)NC(=O)[C@H](Cc2c[nH]c3ccc(F)cc23)NC(=O)[C@@H](C)NC(=O)[C@@H]2CCCN2C(=O)CCSCc2cccc(c2)CSCCNC(=O)[C@@H]2CCCN2C(=O)[C@H](Cc2ccccc2)NC1=O [Compound 057] (cyclo(AFP[X1]P[dA][Trp(5-F)][Trp(5-F)]P))
21 | 100 to 1000 | – | C[C@@H]1NC(=O)[C@@H]2CCCN2C(=O)[C@H](Cc2c[nH]c3ccc(F)cc23)NC(=O)[C@H](Cc2c[nH]c3ccc(F)cc23)NC(=O)[C@@H](C)NC(=O)[C@H](C(C)(C)C)NC(=O)CCSCc2cccc(c2)CSCCNC(=O)[C@@H]2CCCN2C(=O)[C@H](Cc2ccc(O)cc2)NC1=O [Compound 095] (cyclo(AYP[X1][Tle][dA][Trp(5-F)][Trp(5-F)]P))
